Patent US11685732B2, “MYST family histone acetyltransferase inhibitors” (Epizyme, Inc., priority 2017, dated 2023)

Tests used:
[1] = biological target: KAT-6A (Homo sapiens (Human), UniProt Q92794); assay: KAT-6A biochemical inhibition assay (SAMDI mass spectrometry)
Summary of the method: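 IC50 values came from SAMDI time-of-flight mass spectrometry after formic acid quench (0.5% final). Acetylation ran 90 min at 25 °C with 1 μM acetyl coenzyme A and 1 μM peptide substrate, following compound pre-incubation with 12.5 nM KAT-6A in Tris buffer pH 8.0 containing DTT, 2% DMSO final.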

[2] = biological target: KAT-8 (Homo sapiens (Human), UniProt Q9H7Z6); assay: KAT-8 biochemical inhibition assay (SAMDI mass spectrometry)
KAT-8, sequence (Q9H7Z6 other isoform, or with tags, fused parts or gaps): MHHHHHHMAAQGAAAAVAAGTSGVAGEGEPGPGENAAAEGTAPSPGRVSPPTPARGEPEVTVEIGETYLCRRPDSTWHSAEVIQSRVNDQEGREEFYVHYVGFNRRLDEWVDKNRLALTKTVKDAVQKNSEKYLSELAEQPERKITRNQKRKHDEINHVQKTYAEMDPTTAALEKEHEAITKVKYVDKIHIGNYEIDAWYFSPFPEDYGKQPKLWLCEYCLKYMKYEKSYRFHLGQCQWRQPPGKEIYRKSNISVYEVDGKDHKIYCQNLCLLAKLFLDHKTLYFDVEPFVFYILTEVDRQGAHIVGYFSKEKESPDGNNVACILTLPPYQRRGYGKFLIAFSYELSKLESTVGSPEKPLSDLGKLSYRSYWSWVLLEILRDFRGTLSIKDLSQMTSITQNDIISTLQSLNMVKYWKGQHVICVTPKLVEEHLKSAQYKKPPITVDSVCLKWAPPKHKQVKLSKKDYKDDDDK
Summary of the method: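 Acetylation of 1 μM peptide substrate with 5 μM acetyl-CoA by 12.5 nM enzyme, compound pre-incubated, 2% DMSO, Tris pH 8.0 buffer with DTT, 25 °C for 90 min. Quench with 0.5% formic acid; product read by SAMDI mass spectrometry to give IC50.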

[3] = biological target: KAT-5 (Homo sapiens (Human), UniProt Q92993); assay: KAT-5 biochemical inhibition assay (SAMDI mass spectrometry)
KAT-5, sequence (Q92993 other isoform, or with tags, fused parts or gaps): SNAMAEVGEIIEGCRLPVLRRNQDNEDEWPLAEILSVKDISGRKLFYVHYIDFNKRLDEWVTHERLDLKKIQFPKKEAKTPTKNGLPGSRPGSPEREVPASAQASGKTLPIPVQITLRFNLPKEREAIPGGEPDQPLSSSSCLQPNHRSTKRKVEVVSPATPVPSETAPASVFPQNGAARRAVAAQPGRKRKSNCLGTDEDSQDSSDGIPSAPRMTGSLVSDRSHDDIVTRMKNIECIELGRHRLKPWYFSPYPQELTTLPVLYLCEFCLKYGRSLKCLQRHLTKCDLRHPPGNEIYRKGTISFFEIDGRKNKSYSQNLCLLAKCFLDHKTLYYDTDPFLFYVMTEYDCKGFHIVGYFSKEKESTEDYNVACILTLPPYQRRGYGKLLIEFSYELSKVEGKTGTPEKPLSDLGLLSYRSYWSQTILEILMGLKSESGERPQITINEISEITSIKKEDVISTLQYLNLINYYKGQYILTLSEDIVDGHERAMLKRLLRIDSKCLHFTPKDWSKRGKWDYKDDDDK
Summary of the method: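 Acetylation of 1 μM peptide by 9 nM enzyme with 0.5 μM acetyl-CoA (final) was run 90 min at 25° C in Tris pH 8.0 buffer with DTT, after compound preincubation at 2% DMSO. Formic acid stopped the reaction, and product was quantified by SAMDI mass spectrometry to derive IC50.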

[4] = biological target: KAT-7 (Homo sapiens (Human), UniProt O95251); assay: KAT-7 biochemical inhibition assay (SAMDI mass spectrometry)
KAT-7, sequence (O95251 other isoform, or with tags, fused parts or gaps): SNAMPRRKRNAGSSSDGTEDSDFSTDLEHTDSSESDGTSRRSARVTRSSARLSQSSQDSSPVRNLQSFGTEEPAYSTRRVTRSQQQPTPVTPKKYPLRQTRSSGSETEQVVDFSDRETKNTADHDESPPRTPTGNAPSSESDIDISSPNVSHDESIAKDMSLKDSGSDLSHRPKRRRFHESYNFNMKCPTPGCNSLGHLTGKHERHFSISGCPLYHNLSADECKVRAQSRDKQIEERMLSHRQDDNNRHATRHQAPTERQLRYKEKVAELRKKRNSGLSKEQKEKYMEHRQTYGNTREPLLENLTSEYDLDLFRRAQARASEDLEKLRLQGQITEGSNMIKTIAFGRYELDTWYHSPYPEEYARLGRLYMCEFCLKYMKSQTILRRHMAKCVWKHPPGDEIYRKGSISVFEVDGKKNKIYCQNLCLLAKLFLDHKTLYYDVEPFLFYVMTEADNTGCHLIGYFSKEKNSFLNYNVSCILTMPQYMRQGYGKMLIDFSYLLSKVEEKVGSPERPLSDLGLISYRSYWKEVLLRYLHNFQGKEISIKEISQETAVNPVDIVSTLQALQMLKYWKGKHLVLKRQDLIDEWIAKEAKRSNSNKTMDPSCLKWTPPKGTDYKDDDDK
Summary of the method: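 Read-out was SAMDI time-of-flight MS of formic acid-quenched reactions (0.5% final). Compound dilutions (2% DMSO final) were pre-incubated with 6 nM KAT-7 in 50 mM Tris pH 8.0 with 1 mM DTT, then given 1 μM peptide substrate and 2 μM acetyl-CoA for 120 min at 25 °C. IC50 values were derived.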

KAT-6A, sequence (Q92794 other isoform, or with tags, fused parts or gaps): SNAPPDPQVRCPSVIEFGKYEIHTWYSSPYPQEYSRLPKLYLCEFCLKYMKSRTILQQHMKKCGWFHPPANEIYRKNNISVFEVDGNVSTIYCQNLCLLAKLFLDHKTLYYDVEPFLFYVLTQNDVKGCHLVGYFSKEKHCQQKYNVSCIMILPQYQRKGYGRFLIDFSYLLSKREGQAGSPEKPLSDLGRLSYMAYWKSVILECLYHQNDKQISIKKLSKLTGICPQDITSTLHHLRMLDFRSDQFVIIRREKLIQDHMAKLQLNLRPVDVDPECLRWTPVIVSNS

SMILES | IC50 [1] [µM] | IC50 [2] [µM] | IC50 [3] [µM] | IC50 [4] [µM]
CC(C)NC(=O)N1CC(CS(=O)(=O)NNC(=O)c2cc(-c3cn(C)cn3)cc(Cl)c2F)C1 [Compound I-204] | 10 to 50 | 10 to 50 | 10 to 50 | < 10
CCS(=O)(=O)NNC(=O)c1cc(-c2cn(C)cn2)cc(Cl)c1F [Compound I-25] | 50 to 100 | > 100 | 10 to 50 | < 10
Cc1cc(-c2cn(C)c(Cl)n2)cc(C(=O)NNS(=O)(=O)CC2CCCCC2)c1C [Compound I-147] | > 100 | > 100 | > 100 | > 100
Cc1ncnn1-c1cc(Cl)c(F)c(C(=O)NNS(=O)(=O)CC2CCOCC2)c1 [Compound I-100] | 10 to 50 | 10 to 50 | 10 to 50 | 10 to 50
COCCn1cnc(-c2cc(C)c(F)c(C(=O)NNS(=O)(=O)CC3CCOCC3)c2)c1 [Compound I-140] | 10 to 50 | > 100 | 10 to 50 | < 10
Cn1cnc(-c2cc(Cl)c(F)c(C(=O)NNS(=O)(=O)c3cnn(C)n3)c2)c1 [Compound I-72] | < 10 | 10 to 50 | 10 to 50 | < 10
COCC(=O)N1CCCC(CS(=O)(=O)NNC(=O)c2cc(-c3cn(CCO)cn3)cc(C)c2F)C1 (stereo not drawn) [Compound I-148] | 10 to 50 | 10 to 50 | 10 to 50 | 10 to 50
COCCn1cnc(-c2cc(C)c(F)c(C(=O)NNS(=O)(=O)CC3CCCNC3)c2)c1 (stereo not drawn) [Compound I-136] | > 100 | > 100 | > 100 | > 100
O=C(NNS(=O)(=O)CC1CCOCC1)c1cc(-c2cocn2)cc(Cl)c1F [Compound I-68] | 10 to 50 | 10 to 50 | < 10 | 10 to 50
Cn1cnc(-c2cc(Cl)c(F)c(C(=O)NNS(=O)(=O)CC3CCN(S(=O)(=O)C4CCC4)C3)c2)c1 (stereo not drawn) [Compound I-106] | < 10 | 10 to 50 | < 10 | < 10
COCCn1cc(-c2cc(C)c(F)c(C(=O)NNS(=O)(=O)C3CCCCC3)c2)cn1 [Compound I-152] | > 100 | > 100 | 10 to 50 | > 100
Cc1cc(-c2cn(CCO)cn2)cc(C(=O)NNS(=O)(=O)C2CCOCC2)c1F [Compound I-143] | 50 to 100 | > 100 | 50 to 100 | 50 to 100
Cn1cnc(-c2cc(Cl)c(Cl)c(C(=O)NNS(=O)(=O)CC3CCCCC3)c2)c1 [Compound I-144] | > 100 | > 100 | > 100 | < 10
Cc1cc(-c2cn(C)cn2)cc(C(=O)NNS(=O)(=O)CC2CCCN(C(=O)OC(C)(C)C)C2)c1F (stereo not drawn) [Compound I-132] | < 10 | > 100 | < 10 | < 10
Cn1cnc(-c2cc(Cl)c(F)c(C(=O)NNS(=O)(=O)CC3CCCN(C(=O)C4CCOCC4)C3)c2)c1 (stereo not drawn) [Compound I-32] | < 10 | > 100 | < 10 | < 10
COc1ccc(CNC(=O)NC2CCC(CS(=O)(=O)NNC(=O)c3cc(-c4cn(C)cn4)cc(Cl)c3F)CC2)cc1 (stereo not drawn) [Compound I-177] | < 10 | < 10 | < 10 | < 10
Cn1cnc(-c2cc(Cl)c(F)c(C(=O)NNS(=O)(=O)C[C@@H]3CCN(C(=O)OC(C)(C)C)C3)c2)c1 [Compound I-117] | < 10 | 10 to 50 | < 10 | < 10
Cc1cc(-c2cncn2C)cc(C(=O)NNS(=O)(=O)C2CCCCC2)c1F [Compound I-153] | > 100 | > 100 | > 100 | > 100
CC(C)NC(=O)N1CCC(CS(=O)(=O)NNC(=O)c2cc(-c3cn(C)cn3)cc(Cl)c2F)C1 (stereo not drawn) [Compound I-198] | < 10 | 10 to 50 | < 10 | < 10
CCNC(=O)N1[C@H]2CC[C@@H](CS(=O)(=O)NNC(=O)c3cc(-c4cn(C)cn4)cc(Cl)c3F)[C@@H]1CC2 [Compound I-260] | < 10 | 10 to 50 | < 10 | < 10
CC(C)S(=O)(=O)N1CCC(CS(=O)(=O)NNC(=O)c2cc(-c3cn(C)cn3)cc(Cl)c2F)C1 (stereo not drawn) [Compound I-92] | < 10 | 10 to 50 | < 10 | < 10
CCNC(=O)N1CCC(CS(=O)(=O)NNC(=O)c2cc(-c3cn(C)cn3)cc(Cl)c2F)C1 (stereo not drawn) [Compound I-88] | 10 to 50 | 10 to 50 | < 10 | < 10
Cn1cc(-c2cc(Cl)c(F)c(C(=O)NNS(=O)(=O)CC3CCOCC3)c2)nn1 [Compound I-67] | 10 to 50 | > 100 | 10 to 50 | 10 to 50
CNC(=O)N[C@H]1C[C@H](CS(=O)(=O)NNC(=O)c2cc(-c3cn(C)cn3)cc(Cl)c2F)C1 [Compound I-188] | 10 to 50 | 10 to 50 | 10 to 50 | < 10
Cc1ncn(C)c1-c1cc(Cl)c(F)c(C(=O)NNS(=O)(=O)CC2CCCCC2)c1 [Compound I-45] | > 100 | > 100 | > 100 | 50 to 100

Continued, values first:

IC50 [1] [µM] | IC50 [2] [µM] | IC50 [3] [µM] | IC50 [4] [µM] | SMILES
< 10 | 10 to 50 | < 10 | < 10 | CN(C)C(=O)N(C)C1CCCC(CS(=O)(=O)NNC(=O)c2cc(-c3cn(C)cn3)cc(Cl)c2F)C1 (stereo not drawn) [Compound I-292]
< 10 | 10 to 50 | < 10 | < 10 | Cn1cnc(-c2cc(Cl)c(F)c(C(=O)NNS(=O)(=O)CC34CCC(CC3)CC4)c2)c1 [Compound I-334]
< 10 | 10 to 50 | < 10 | < 10 | CNC(=O)NC1CCC(CS(=O)(=O)NNC(=O)c2cc(-c3cn(C)cn3)cc(Cl)c2F)C1 (stereo not drawn) [Compound I-360]
< 10 | 10 to 50 | < 10 | < 10 | Cn1cnc(-c2cc(Cl)c(F)c(C(=O)NNS(=O)(=O)C[C@H]3CC[C@H](NC(=O)Cc4ccncc4)CC3)c2)c1 [Compound I-254]
10 to 50 | 10 to 50 | 10 to 50 | < 10 | CN(C)C(=O)CS(=O)(=O)NNC(=O)c1cc(-c2cn(C)cn2)cc(Cl)c1F [Compound I-314]
< 10 | 10 to 50 | < 10 | < 10 | Cn1cnc(-c2cc(Cl)c(F)c(C(=O)NNS(=O)(=O)CC3CCN(C(N)=O)C3)c2)c1 (stereo not drawn) [Compound I-205]
10 to 50 | 10 to 50 | 10 to 50 | < 10 | CNC1CCC(CS(=O)(=O)NNC(=O)c2cc(-c3cn(C)cn3)cc(Cl)c2F)CC1 (stereo not drawn) [Compound I-297]
< 10 | 10 to 50 | 10 to 50 | < 10 | CC(=O)Nc1ccccc1S(=O)(=O)NNC(=O)c1cc(-c2cn(C)cn2)cc(Cl)c1F [Compound I-370]
10 to 50 | 10 to 50 | < 10 | < 10 | CCO[C@@H]1CCC[C@H](CS(=O)(=O)NNC(=O)c2cc(-c3cn(C)cn3)cc(Cl)c2F)C1 [Compound I-356]
10 to 50 | 10 to 50 | 10 to 50 | 10 to 50 | Cn1cnc(-c2cc(Cl)c(F)c(C(=O)NNS(=O)(=O)C[C@@H]3CCC[C@@H](N)C3)c2)c1 [Compound I-351]
< 10 | 10 to 50 | < 10 | < 10 | Cn1cnc(-c2cc(Cl)c(F)c(C(=O)NNS(=O)(=O)CC3(F)CCCCC3)c2)c1 [Compound I-358]
< 10 | 10 to 50 | < 10 | < 10 | Cn1cnc(-c2cc(Cl)c(F)c(C(=O)NNS(=O)(=O)CC3CCCC(NC(=O)Cc4cccnc4)C3)c2)c1 (stereo not drawn) [Compound I-243]
< 10 | 10 to 50 | < 10 | < 10 | Cn1cnc(-c2cc(Cl)c(F)c(C(=O)NNS(=O)(=O)CC3CCCC(NC(=O)Cc4ccncc4)C3)c2)c1 (stereo not drawn) [Compound I-247]
10 to 50 | 10 to 50 | 10 to 50 | < 10 | CN1CC(CS(=O)(=O)NNC(=O)c2cc(-c3cn(C)cn3)cc(Cl)c2F)CC1=O (stereo not drawn) [Compound I-224]
10 to 50 | 10 to 50 | 10 to 50 | 10 to 50 | Cn1cnc(-c2cc(Cl)c(F)c(C(=O)NNS(=O)(=O)c3cncs3)c2)c1 [Compound I-257]
< 10 | 10 to 50 | < 10 | < 10 | CN(C(=O)OC(C)(C)C)c1cccc(S(=O)(=O)NNC(=O)c2cc(-c3cn(C)cn3)cc(Cl)c2F)c1 [Compound I-343]
< 10 | 10 to 50 | < 10 | < 10 | Cn1cnc(-c2cc(Cl)c(F)c(C(=O)NNS(=O)(=O)CC3CCCC(F)(F)C3)c2)c1 (stereo not drawn) [Compound I-342]
